What was measured:
PhaCA = system: T1, PhaCA; assay: stopped-flow CO2 hydration assay; type: biochemical, Pseudoalteromonas haloplanktis; details: activation constant (activator); CO2 substrate; TRIS pH 8.3, 0.1 M NaClO4, 25 °C; 15 min pre-incubation
T1 construct: purified recombinant gamma-class enzyme
From the text: stopped-flow CO2 hydration assay on PhaCA

CpsCA = system: T2, CpsCA; assay: stopped-flow CO2 hydration assay; type: biochemical, Colwellia psychrerythraea; details: activation constant (activator); CO2 substrate; TRIS pH 8.3, 0.1 M NaClO4, 25 °C; 15 min pre-incubation
T2 construct: purified recombinant gamma-class enzyme
From the text: stopped-flow CO2 hydration assay on CpsCA

SMILES	KA (μM) * / PhaCA ^b (PhaCA) [µM]	KA (μM) * / CpsCA ^b (CpsCA) [µM]
Nc1ccc(C[C@H](N)C(=O)O)cc1 [compound 11, 4-H2N-L-Phe]	3.27	17.2
N[C@H](Cc1ccc(O)c(O)c1)C(=O)O [compound 6, D-DOPA]	0.72	11.2
NCCc1c[nH]cn1 [compound 12, Histamine]	6.48	20.6
N[C@@H](Cc1c[nH]c2ccccc12)C(=O)O [compound 7, L-Trp]	7.12	21.3
NCCc1ccc(O)c(O)c1 [compound 13, Dopamine]	8.70	–
N[C@H](Cc1ccccc1)C(=O)O [compound 4, D-Phe]	3.19	15.4
N[C@@H](Cc1ccc(O)cc1)C(=O)O [compound 9, L-Tyr]	1.02	19.5
NCc1ccccn1 [compound 15, 2-Pyridyl-methylamine]	2.39	21.5
N[C@H](Cc1ccc(O)cc1)C(=O)O [compound 10, D-Tyr]	7.35	18.4
N[C@@H](Cc1ccc(O)c(O)c1)C(=O)O [compound 5, L-DOPA]	1.08	4.79
N[C@H](CCC(=O)O)C(=O)O [compound 23, D-Glu]	–	12.0
